Where a name gives a salt, the structure may show the parent alone.

The first test has as its system Frataxin (FXN) mRNA. Put plainly: Effect of HDAC inhibitors on frataxin (FXN) mRNA expression, qRT-PCR in compound-treated iPSC derived neuronal cells. Type of test: cell-based. Particulars: iPSC, 24 h, compound concentration of 0.625 μM, 24 h incubation, read-out: FXN mRNA fold induction. The protocol:
Effect of HDAC Inhibitors on Frataxin (FXN) mRNA Expression
Method: mRNA quantification of compound-treated iPSC derived neuronal cells Neuronal stem cells were cultured in Neurobasal A medium (Life technologies #10888022) supplemented with N2, B27 (Life technologies #17502-048 and #17504-044), L-glutamine (Life technologies #25030081), supplemented with 20 ng/ml EGF (R&D Systems #236-EG) and 20 ng/ml bFGF (BioPioneer # HRP-0011). Neuronal differentiation was initiated by removing growth factors and culturing cells in Neurobasal A with N2 and B27. Cells were allowed to differentiate for 16 days. HDAC inhibitory compound was then added and incubate for 24 h. RNA isolation was performed using the RNeasy Plus mini kit (QIAgen #74134) using a QIAcube instrument per manufacturer's instructions. qRT-PCR was performed using qScript One-Step SYBR Green qRT-PCR Kit (Quanta Biosciences 170-8893BR) with the following conditions: 20 minutes at 50° C., 5 minutes at 95° C., and then 40 cycles of 20 seconds at 95° C., 20 seconds at 55° C., 30 seconds at 72° C. The primer sequences to detect expression of FXN were: 5′-[…]-3′ and 5′-[…]-3′.
The data for the following compounds, for FXN mRNA fold induction at a compound concentration of 0.625 μM are shown in Table 1, where A<1, 1<B<2, 2<C<3, 3<D<5, E>5.
(In qPCR the cycle at which signal appears reflects the starting amount.)
For the compound `Nc1ccccc1NC(=O)c1ccc(OC2CCN(C3COC3)CC2)cc1` [Compound 132, N-(2-aminophenyl)-4-((1-(oxetan-3-yl)piperidin-4-yl)oxy)benzamide], the fold induction at 0.625 µM is 1 to 2. For the compound `Nc1ccccc1NC(=O)c1ccc(OC2CCNCC2)cc1` [Compound 65, N-(2-aminophenyl)-4-(piperidin-4-yloxy)benzamide hydrochloride], the fold induction at 0.625 µM lay within 2 to 3. Take `Nc1ccccc1NC(=O)c1ccc(N[C@@H]2CCCN(CC3CCCCC3)CC2)cc1` (single isomer, unassigned) [Compound 85A]: the fold induction at 0.625 µM lay in the range of 2 to 3. The same measure, in the same setting: the result for `CC(C)(O)CN1CCC(Oc2ccc(C(=O)Nc3ccccc3N)cc2)CC1(C)C` (centres unmarked) [Compound 363, N-(2-aminophenyl)-4-((1-(2-hydroxy-2-methylpropyl)-2,2-dimethylpiperidin-4-yl)oxy)benzamide] reads 2 to 3; that for `CC(C)CN1CCC(Nc2ccc(C(=O)Nc3ccccc3N)cc2)CC1` [Compound 112, N-(2-aminophenyl)-4-((1-isobutylpiperidin-4-yl)amino)benzamide trihydrochloride], 1 to 2. Still for that read-out and setting: the result for `Nc1ccccc1NC(=O)c1ccc(O[C@@H]2CCN(C3CC3)C2)cc1` [Compound 129, (R)-N-(2-aminophenyl)-4-((1-cyclopropylpyrrolidin-3-yl)oxy)benzamide] reads 1 to 2; that for `CN1CC[C@@H](Oc2ccc(C(=O)Nc3ccccc3N)cc2)C1` [Compound 58, (R)-N-(2-aminophenyl)-4-((1-methylpyrrolidin-3-yl)oxy)benzamide], 2 to 3; that for `CC(C)(O)CN1CC[C@@H](Nc2ccc(C(=O)Nc3ccccc3N)cc2)C1` [Compound 105, (R)-N-(2-aminophenyl)-4-((1-(2-hydroxy-2-methylpropyl)pyrrolidin-3-yl)amino)benzamide trihydrochloride], 2 to 3. On the same count and under the same terms, to `CN1CCC(Oc2ccc(C(=O)Nc3ccccc3N)cc2)CC1` [Compound 66, N-(2-aminophenyl)-4-((1-methylpiperidin-4-yl)oxy)benzamide dihydrochloride] belongs 1 to 2.

Turning to `CC(C)(O)CN1CC(Oc2ccc(C(=O)Nc3ccccc3N)cc2)C1` [Compound 44, N-(2-aminophenyl)-4-((1-(2-hydroxy-2-methylpropyl)azetidin-3-yl)oxy)benzamide dihydrochloride], the fold induction at 0.625 µM was 1 to 2.

In the case of `CC1(CN2CCCC(Oc3ccc(C(=O)Nc4ccccc4N)cc3)CC2)CC1` (centres unmarked) [Compound 39, N-(2-aminophenyl)-4-((1-((1-methylcyclopropyl)methyl)azepan-4-yl)oxy)benzamide], the fold induction at 0.625 µM lay in the range of 3 to 5. On to `Nc1ccccc1NC(=O)c1ccc(NC2CCNCC2)cc1` [Compound 110, dihydrochloride], for which the fold induction at 0.625 µM was in the range of 2 to 3. Turning to `Nc1ccccc1NC(=O)c1ccc(O[C@H]2CCN(C3COC3)C2)cc1` [Compound 128, (S)-N-(2-aminophenyl)-4-((1-(oxetan-3-yl)pyrrolidin-3-yl)oxy)benzamide], the fold induction at 0.625 µM fell in the range of 1 to 2. The same measure, in the same setting: the result for `CC(C)(O)CN1CCCC(Nc2ccc(C(=O)Nc3ccccc3N)cc2)CC1` (centres unmarked) [Compound 81, N-(2-aminophenyl)-4-((1-(2-hydroxy-2-methylpropyl)azepan-4-yl)amino)benzamide trihydrochloride] reads 1 to 2; that for `CC(=O)N1CC(Nc2ccc(C(=O)Nc3ccccc3N)cc2)C1` [Compound 170, 4-((1-acetylazetidin-3-yl)amino)-N-(2-aminophenyl)benzamide], 1 to 2. Still for that read-out and setting: to `CC(C)CN1CC(Nc2ccc(C(=O)Nc3ccccc3N)cc2)C1` [Compound 88, N-(2-aminophenyl)-4-((1-isobutylazetidin-3-yl)amino)benzamide trihydrochloride] belongs 1 to 2. As for `Nc1ccccc1NC(=O)c1ccc(N[C@@H]2CCN(C3COC3)C2)cc1` [Compound 139, (R)-N-(2-aminophenyl)-4-((1-(oxetan-3-yl)pyrrolidin-3-yl)amino)benzamide tris(2,2,2-trifluoroacetate)], the fold induction at 0.625 µM was 1 to 2. `Nc1ccccc1NC(=O)c1ccc(NC2CCN(C3COC3)CC2)cc1` [Compound 141, N-(2-aminophenyl)-4-((1-(oxetan-3-yl)piperidin-4-yl)amino)benzamide]: the fold induction at 0.625 µM was 1 to 2. The same measure, in the same setting: the result for `CC(C)CN1CC[C@@H](Oc2ccc(C(=O)Nc3ccccc3N)cc2)C1` [Compound 59, (R)-N-(2-aminophenyl)-4-((1-isobutylpyrrolidin-3-yl)oxy)benzamide dihydrochloride] reads 1 to 2. Still for that read-out and setting: to `CC(C)(O)CN1CCC(Nc2ccc(C(=O)Nc3ccccc3N)cc2)CC1(C)C` (centres unmarked) [Compound 369, N-(2-aminophenyl)-4-((1-(2-hydroxy-2-methylpropyl)-2,2-dimethylpiperidin-4-yl)amino)benzamide] belongs 1 to 2; to `CC(C)CN1CCC(Oc2ccc(C(=O)Nc3ccccc3N)cc2)CC1` [Compound 67, N-(2-aminophenyl)-4-((1-isobutylpiperidin-4-yl)oxy)benzamide dihydrochloride], 1 to 2. In the case of `Nc1ccccc1NC(=O)c1ccc(OC2CCN(CC34CC5CC(CC(C5)C3)C4)CC2)cc1` [Compound 133, 4-((1-(((3r,5r,7r)-adamantan-1-yl)methyl)pipendin-4-yl)oxy)-N-(2-aminophenyl)benzamide dihydrochloride], the fold induction at 0.625 µM is 2 to 3. For `Nc1ccccc1NC(=O)c1ccc(N[C@@H]2CCNC2)cc1` [Compound 102, (R)—N-(2-aminophenyl)-4-(pyrrolidin-3-ylamino)benzamide Trihydrochloride], the fold induction at 0.625 µM is 2 to 3. Still for that read-out and setting: the result for `CN1CCCC(Oc2ccc(C(=O)Nc3ccccc3N)cc2)CC1` (centres unmarked) [Compound 34, N-(2-aminophenyl)-4-((1-methylazepan-4-yl)oxy)benzamide bis(2,2,2-trifluoroacetate)] reads 1 to 2; that for `Nc1ccccc1NC(=O)c1ccc(N[C@H]2CCN(CC3CC3)C2)cc1` [Compound 99, (S)-N-(2-aminophenyl)-4-((1-(cyclopropylmethyl)pyrrolidin-3-yl)amino)benzamide trihydrochloride], 2 to 3.

Staying with this test, now noted: iPSC, 24 h, read-out: FXN mRNA fold induction, compound concentration of 0.625 μM, 24 h incubation.
For the compound `CC(C)(O)CN1C2CCC1CC(Nc1ccc(C(=O)Nc3ccccc3N)cc1)C2` (centres unmarked) [Compound 118, N-(2-aminophenyl)-4-((8-(2-hydroxy-2-methylpropyl)-8-azabicyclo[3.2.1]octan-3-yl)amino)benzamide], the fold induction at 0.625 µM lay within 2 to 3. In the case of `CC(C)CN1C2CCC1CC(Nc1ccc(C(=O)Nc3ccccc3N)cc1)C2` (centres unmarked) [Compound 117, N-(2-aminophenyl)-4-((8-isobutyl-8-azabicyclo[3.2.1]octan-3-yl)amino)benzamide], the fold induction at 0.625 µM fell in the range of 2 to 3.

With `CN(c1ccc(C(=O)Nc2ccccc2N)cc1)C1CCN(CC2CC2)CC1` [Compound 5, N-(2-aminophenyl)-4-((1-(cyclopropylmethyl)piperidin-4-yl)(methyl)amino)benzamide], the fold induction at 0.625 µM was in the range of 2 to 3. With `CCN(c1ccc(C(=O)Nc2ccccc2N)cc1)C1CCN(CC2CC2)CC1` [Compound 26, N-(2-aminophenyl)-4-((1-(cyclopropylmethyl)piperidin-4-yl)(ethyl)amino)benzamide Trihydrochloride], the fold induction at 0.625 µM was in the range of 2 to 3.
